Measured values published in patent US10829520B2, “Beta-hairpin peptidomimetics” (POLYPHOR AG, priority 2015, dated 2020).
Where a SMILES comes first, the peptide text is derived from it. Bridges are numbered along the chain shown (N, C = ends). [ ]: non-standard residue; d: D form. Tle = CC(C)(C)[C@H](N)C(=O)O; Nle = CCCC[C@H](N)C(=O)O; Orn = NCCC[C@H](N)C(=O)O; Dab = NCC[C@H](N)C(=O)O; Aib = CC(C)(N)C(=O)O

Tests used:
Type in all cases: cell-based
Escherichia coli 926415 = details: 926415
[1] = tested on: Acinetobacter baumannii 872842; details: 872842
[2] = tested on: Acinetobacter baumannii DSM 30008; details: DSM 30008
How it was run: (§1)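 Antibacterial activity is measured as MIC (μg/mL) by standard CLSI microdilution. Inocula of about 10^6 CFU/mL in MH-II broth meet two-fold peptide dilutions in medium with 0.002% Polysorbate 80, and growth is scored visually after 18-20 hours at 35° C.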

[3] = tested on: Klebsiella pneumoniae 968733; details: 968733
[4] = tested on: Pseudomonas aeruginosa ATCC 27853; details: ATCC 27853
How it was run: as §1

[5] = tested on: Escherichia coli ATCC 25922; details: ATCC 25922
How it was run: as §1

[6] = tested on: Klebsiella pneumoniae SSI #3010; details: SSI #3010
How it was run: as §1

[7] = tested on: human red blood cells (hRBC); assay: Hemolysis of human red blood cells; details: red cells of human, 1 h, 100 μg/mL
How it was run: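 Fresh human red blood cells are washed in PBS, then shaken with peptide (100 μg/mL) at 37° C. for 1 h, final erythrocyte density about 0.9×10^9 cells/mL. After centrifugation, diluted supernatants are read at 540 nm against buffer (0%) and Triton X-100 (100%) lysis controls.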

SMILES | Escherichia coli 926415 MIC (Escherichia coli 926415) | Acinetobacter baumannii 872842 MIC [1] | Acinetobacter baumannii DSM 30008 MIC [2] | Klebsiella pneumoniae 968733 MIC [3] | Pseudomonas aeruginosa ATCC 27853 MIC [4] | Escherichia coli ATCC 25922 MIC [5] | Klebsiella pneumoniae SSI #3010 MIC [6] | Hemolysis at 100 μg/mL [7]
CCCC[C@@H]1NC(=O)[C@@H]2CCCN2C(=O)[C@H]2CCCN2C(=O)[C@H](CO)NC(=O)[C@H](C)NC(=O)[C@H](C(C)(C)C)NC(=O)[C@@H](NC(=O)[C@H](Cc2c[nH]c3ccccc23)NC(C)=O)CSSC[C@@H](C(=O)N[C@H](C)C(=O)N[C@@H](CCN)C(=O)N[C@H](C(=O)N[C@@H](CCN)C(=O)N[C@H]2CCNC(=O)[C@H]([C@@H](C)O)NC(=O)[C@H](CCN)NC(=O)[C@H](CCN)NC(=O)[C@H](CC(C)C)NC(=O)[C@@H](Cc3ccccc3)NC(=O)[C@H](CCN)NC2=O)[C@@H](C)O)NC(=O)[C@H](Cc2ccc(O)cc2)NC(=O)[C@H](CO)NC1=O [Ex. 29] (Ac-WC[Tle]AS[dP]P[Nle]SYC[dA][Dab]T[Dab][Dab][Dab][dF]L[Dab][Dab]T; disulfide 2-11; lactam 16-C) | 1 µg/mL | 0.25 µg/mL | 0.25 µg/mL | 1 µg/mL | 0.5 µg/mL | 0.125 µg/mL | 0.25 µg/mL | <1%
CCCC[C@@H]1NC(=O)[C@@H]2CCCN2C(=O)[C@H]2CCCN2C(=O)[C@H](CO)NC(=O)[C@H](C)NC(=O)[C@H](C(C)(C)C)NC(=O)[C@@H](NC(=O)[C@H](Cc2c[nH]c3ccccc23)NC(C)=O)CSSC[C@@H](C(=O)NC(C)(C)C(=O)N[C@@H](CCN)C(=O)N[C@H](C(=O)N[C@@H](CCN)C(=O)N[C@H]2CCNC(=O)[C@H]([C@@H](C)O)NC(=O)[C@H](CCN)NC(=O)[C@H](CCN)NC(=O)[C@H](CC(C)C)NC(=O)[C@@H](Cc3ccccc3)NC(=O)[C@H](CCN)NC2=O)[C@@H](C)O)NC(=O)[C@H](Cc2ccc(O)cc2)NC(=O)[C@H](CO)NC1=O [Ex. 30] (Ac-WC[Tle]AS[dP]P[Nle]SYC[Aib][Dab]T[Dab][Dab][Dab][dF]L[Dab][Dab]T; disulfide 2-11; lactam 16-C) | 1 µg/mL | 1 µg/mL | 0.25 µg/mL | 0.25 µg/mL | 0.5 µg/mL | 0.25 µg/mL | 0.25 µg/mL | <1%
CCCC[C@@H]1NC(=O)[C@@H]2CCCN2C(=O)[C@H]2CCCN2C(=O)[C@H](CO)NC(=O)[C@H](C)NC(=O)[C@H](C(C)(C)C)NC(=O)[C@@H](NC(=O)[C@H](Cc2c[nH]c3ccccc23)NC(C)=O)CSSC[C@@H](C(=O)N[C@@H](CCN)C(=O)NCC(=O)N[C@H](C(=O)N[C@@H](CCN)C(=O)N[C@H]2CCNC(=O)[C@H]([C@@H](C)O)NC(=O)[C@H](CCN)NC(=O)[C@H](CCN)NC(=O)[C@H](CC(C)C)NC(=O)[C@@H](Cc3ccccc3)NC(=O)[C@H](CCN)NC2=O)[C@@H](C)O)NC(=O)[C@H](Cc2ccc(O)cc2)NC(=O)[C@H](CO)NC1=O [Ex. 31] (Ac-WC[Tle]AS[dP]P[Nle]SYC[Dab]GT[Dab][Dab][Dab][dF]L[Dab][Dab]T; disulfide 2-11; lactam 16-C) | 1.5 µg/mL | 1 µg/mL | 0.125 µg/mL | 0.75 µg/mL | 1 µg/mL | 0.5 µg/mL | 0.25 µg/mL | 2%
CCCC[C@@H]1NC(=O)[C@@H]2CCCN2C(=O)[C@H]2CCCN2C(=O)[C@H](CO)NC(=O)[C@H](C)NC(=O)[C@H](C(C)(C)C)NC(=O)[C@@H](NC(=O)[C@H](Cc2c[nH]c3ccccc23)NC(C)=O)CSSC[C@@H](C(=O)N[C@@H](CCN)C(=O)N[C@H](C(=O)N[C@H](C)C(=O)N[C@@H](CCN)C(=O)N[C@H]2CCNC(=O)[C@H]([C@@H](C)O)NC(=O)[C@H](CCN)NC(=O)[C@H](CCN)NC(=O)[C@H](CC(C)C)NC(=O)[C@@H](Cc3ccccc3)NC(=O)[C@H](CCN)NC2=O)[C@@H](C)O)NC(=O)[C@H](Cc2ccc(O)cc2)NC(=O)[C@H](CO)NC1=O [Ex. 32] (Ac-WC[Tle]AS[dP]P[Nle]SYC[Dab]T[dA][Dab][Dab][Dab][dF]L[Dab][Dab]T; disulfide 2-11; lactam 16-C) | 0.5 µg/mL | 0.25 µg/mL | 0.125 µg/mL | 1 µg/mL | 0.25 µg/mL | 0.125 µg/mL | 0.25 µg/mL | 2%
CCCC[C@@H]1NC(=O)[C@@H]2CCCN2C(=O)[C@H]2CCCN2C(=O)[C@H](CO)NC(=O)[C@H](C)NC(=O)[C@H](C(C)(C)C)NC(=O)[C@@H](NC(=O)[C@H](Cc2c[nH]c3ccccc23)NC(C)=O)CSSC[C@@H](C(=O)N[C@@H](CCN)C(=O)N[C@H](C(=O)N[C@@H](CCN)C(=O)NCC(=O)N[C@H]2CCNC(=O)[C@H]([C@@H](C)O)NC(=O)[C@H](CCN)NC(=O)[C@H](CCN)NC(=O)[C@H](CC(C)C)NC(=O)[C@@H](Cc3ccccc3)NC(=O)[C@H](CCN)NC2=O)[C@@H](C)O)NC(=O)[C@H](Cc2ccc(O)cc2)NC(=O)[C@H](CO)NC1=O [Ex. 33] (Ac-WC[Tle]AS[dP]P[Nle]SYC[Dab]T[Dab]G[Dab][Dab][dF]L[Dab][Dab]T; disulfide 2-11; lactam 16-C) | 1 µg/mL | 0.25 µg/mL | 0.125 µg/mL | 0.75 µg/mL | 0.5 µg/mL | 0.25 µg/mL | 0.5 µg/mL | 1%
CCCC[C@@H]1NC(=O)[C@@H]2CCCN2C(=O)[C@H]2CCCN2C(=O)[C@H](CO)NC(=O)[C@H](C)NC(=O)[C@H](C(C)(C)C)NC(=O)[C@@H](NC(=O)[C@H](Cc2c[nH]c3ccccc23)NC(C)=O)CSSC[C@@H](C(=O)N[C@@H](CCN)C(=O)N[C@H](C(=O)N[C@@H](CCN)C(=O)N[C@@H](CCN)C(=O)N[C@H]2CCNC(=O)[C@H]([C@@H](C)O)NC(=O)[C@H](CCN)NC(=O)[C@H](CCN)NC(=O)[C@H](CC(C)C)NC(=O)[C@@H](Cc3ccccc3)NC(=O)[C@H](CCN)NC2=O)[C@@H](C)O)NC(=O)[C@H](Cc2ccc(O)cc2)NC(=O)[C@H](CO)NC1=O [Ex. 34] (Ac-WC[Tle]AS[dP]P[Nle]SYC[Dab]T[Dab][Dab][Dab][Dab][dF]L[Dab][Dab]T; disulfide 2-11; lactam 16-C) | 0.25 µg/mL | 0.125 µg/mL | 0.25 µg/mL | 1 µg/mL | 0.125 µg/mL | 0.0625 µg/mL | 0.125 µg/mL | 1%
CCCC[C@@H]1NC(=O)[C@@H]2CCCN2C(=O)[C@H]2CCCN2C(=O)[C@H](CO)NC(=O)[C@H](C)NC(=O)[C@H](C(C)(C)C)NC(=O)[C@@H](NC(=O)[C@H](Cc2c[nH]c3ccccc23)NC(=O)[C@H](CCN)NC(C)=O)CSSC[C@@H](C(=O)N[C@@H](CCCN)C(=O)N[C@@H](CCN)C(=O)N[C@H]2CCNC(=O)[C@H]([C@@H](C)O)NC(=O)[C@H](CCN)NC(=O)[C@H](CCN)NC(=O)[C@H](CC(C)C)NC(=O)[C@@H](Cc3ccccc3)NC(=O)[C@H](CCN)NC2=O)NC(=O)[C@H](Cc2ccc(O)cc2)NC(=O)[C@H](CO)NC1=O [Ex. 35] (Ac-[Dab]WC[Tle]AS[dP]P[Nle]SYC[Orn][Dab][Dab][Dab][dF]L[Dab][Dab]T; disulfide 3-12; lactam 15-C) | 0.5 µg/mL | 1 µg/mL | 0.5 µg/mL | 2 µg/mL | 1 µg/mL | 0.25 µg/mL | 0.25 µg/mL | 1%
